Earlier results in patent US5424332A, “Pharmaceutical composition and process for the production thereof” (priority 1993, dated 1995).

Legend:
[1] = high doses; parenteral, dermal and, in particular, peroral administration
[2] = test system: mitomycin C toxic effects
Ehrlich ascites tumor = settings: mice

| SMILES | adverse effects and toxicity [1] | anti-psoriatic action (psoriasis) | toxic effects of mitomycin C [2] | growth of the Ehrlich ascites tumor (Ehrlich ascites tumor) |
| --- | --- | --- | --- | --- |
| O=C(O)/C(O)=C(\O)C(=O)O [dihydroxy fumaric acid] | unacceptable rate of adverse effects and high toxicity |  |  |  |
| NC(=O)/C=C/C(N)=O [fumaramide] | unacceptable rate of adverse effects and high toxicity |  |  |  |
| O=C(O)/C=C/C(=O)O [fumaric acid] | unacceptable rate of adverse effects and high toxicity | anti-psoriatic | reduces the toxic effects | impedes the growth |
| N#C/C=C/C#N [fumaronitrile] | unacceptable rate of adverse effects and high toxicity |  |  |  |
